Laboratory results as given in publication PMC7516806, “Hybrid Antimicrobial Peptide Targeting Staphylococcus aureus and Displaying Anti-infective Activity in a Murine Model” (Frontiers in Microbiology, 2020).
Positions of bridges follow the written chain, without caps; N, C: chain ends. Residues, ends and D or L forms follow the SMILES beside them.

Columns and labels:
S. typhimurium 7731 = assay: MIC, modified microtiter dilution; format: cell-based, Salmonella typhimurium; settings: MHB, 2–7 × 10^5 CFU/ml, 37°C, 24 h, no turbidity, at least three independent repeats
Text: (§1) The experiment was repeated at least three times independently.

S. typhimurium 14028 = assay: MIC, modified microtiter dilution; format: cell-based, Salmonella typhimurium; settings: MHB, 2–7 × 10^5 CFU/ml, 37°C, 24 h, no turbidity, at least three independent repeats
Text: as §1

S. aureus 29213 [1] = assay: Cytoplasmic membrane depolarization, diSC3-5; format: cell-based, Staphylococcus aureus; settings: 0.4 μM diSC3-5, 100 mM KCl, ex 622 nm, em 670 nm
Method: The dye diSC3-5 was employed to assay cytoplasmic membrane depolarization activities ([Shao et al., 2018]). S. aureus 29213 was diluted to an OD600 = 0.05 after washing three times with buffer (5 mM HEPES, 5 mM glucose, pH 7.4) when the bacteria grew to mid-log phase. Then, diSC3-5 at a final concentration of 0.4 μM was added into the medium and incubated for 1–1.5 h. The final concentration of 100 mM KCl was then added to the solution for 15 min. The peptides were added to 12-well plates, which were filled with 2 mL of cell suspension. An F-4500 fluorescence spectrophotometer (Hitachi, Japan) was employed to measure the fluorescence value at an excitation wavelength of 622 nm and an emission wavelength of 670 nm. Maximal augmentation was monitored, and the fluorescence of the mixture of bacteria and dye served as the blank control.

[2] = test system: Staphylococcus aureus 29213; assay: Bacterial resistance development, serial passaging; format: cell-based; settings: serial passage at sub-MIC for 15 days
Text: Staphylococcus aureus 29213 was employed to assess the development of resistance by the serial passaging method, as previously described ([Lyu et al., 2017]). Minimum inhibitory concentration testing was first conducted for all of the compounds to be tested, as described above. S. aureus was harvested from 96-well plates of sub-MIC levels, diluted in MHB to a concentration of 2–7 × 10^5 CFU/mL, and then subjected to MIC determination for up to 15 days. The change in MIC values determines the development of antibiotic resistance in S. aureus.

mouse skin = assay: Skin toxicity in vivo, TUNEL assay; set-up: species or system ICR mice; settings: 100 μL at 80 × MIC injected into skin, 24 h
Method: Anesthetized mice were shaved on their backs and disinfected. A total of 100 μL of S2 (80 × MIC) was injected into the skin. Equal volumes of saline and 100% DMSO were used as the negative and positive controls, respectively. The skin was removed from the injection sites for tissue processing after 24 h. OCT-embedded slides were stained using the DeadEnd^TM Fluorometric TUNEL System for the detection of apoptotic cells and counterstained with 4,6-diamidino-2-phenylindole (DAPI). Photographs were taken using a microscope ([Huang et al., 2011a]).

S. aureus 29213 [3] = assay: Mouse model of subcutaneous infection; format: in vivo, ICR mice; settings: 80× MIC
Method: To assess the antimicrobial activity of the peptide in vivo, a mouse model of subcutaneous infection was used ([Huang et al., 2011a]; [Omolo et al., 2017]). Female Institute for Cancer Research (ICR) mice (SPF, 20–25 g) were purchased from WeiTonglihua Co., Ltd. (Beijing, China), with eight animals per group. The mice were shaved on their backs and disinfected. S. aureus 29213 (100 μL) at a concentration of 1 × 10^8 CFU/mL was injected into the superficial skin of the mice. The mice were divided into four groups (n = 4), as follows: S. aureus + saline, S. aureus + S2 (80× MIC, 100 μL), S. aureus + vancomycin (Van) (80× MIC, 100 μL), and saline. S2, vancomycin, and saline were injected at the same site 1 h after infection. The mice were monitored over 24 h in an environmentally controlled room at 25 ± 1°C and 55 ± 5% relative humidity with a 12 h light/dark cycle.
To image the infected skin tissues, the mice were euthanized 24 h after the injection of S. aureus. Samples were fixed in 4% buffered paraformaldehyde and subjected to hematoxylin/eosin (HE) staining. The antimicrobial activity in vivo was determined by colony counting of infected skin samples. Skin homogenates were serially diluted in saline and incubated at 37°C for 24 h.

L. plantarum 8014 = assay: MIC, modified microtiter dilution; format: cell-based, Lactobacillus plantarum; settings: 2–7 × 10^5 CFU/ml, 37°C, 24 h, no turbidity, at least three independent repeats
Text: as §1

E. coli K88 = settings: MHB, 2–7 × 10^5 CFU/ml, 37°C, 24 h, no turbidity, at least three independent repeats
In short: (§2)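 Using a modified standard microtiter dilution, AMPs diluted in acetic acid (0.01%)/BSA (0.2%) met an equal volume of mid-log inoculum (2–7 × 10^5 CFU/ml, MHB). Incubation lasted 24 h at 37°C, with inoculated and sterile broth as positive and negative controls.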

E. coli K99 = settings: MHB, 2–7 × 10^5 CFU/ml, 37°C, 24 h, no turbidity, at least three independent repeats
In short: as §2

CC(C)C[C@H](NC(=O)[C@H](CC(C)C)NC(=O)[C@H](Cc1c[nH]c2ccccc12)NC(=O)[C@H](Cc1c[nH]c2ccccc12)NC(=O)[C@H](Cc1c[nH]c2ccccc12)NC(=O)[C@H](CCCNC(=N)N)NC(=O)[C@@H]1CSSC[C@H](N)C(=O)N[C@@H](C)C(=O)N[C@@H](CO)C(=O)N[C@@H](Cc2ccc(O)cc2)C(=O)N[C@@H](Cc2ccccc2)C(=O)N1)C(N)=O [Peptide S2] (H-CASYFCRWWWLL-NH2; disulfide 1-6; N-terminus assumed)
MIC S. typhimurium 7731 (S. typhimurium 7731): >64 µM | MIC S. typhimurium 14028 (S. typhimurium 14028): >64 µM | cytoplasmic membrane depolarization (diSC3-5 fluorescence) (S. aureus 29213 [1]): rapid fluorescence intensity increase | change in MIC value, 15th day versus first day [2]: remained almost constant | apoptotic cells in mouse skin (TUNEL) (mouse skin): no apparent epidermal apoptosis | decrease in bacterial colonies at infection site versus control group (S. aureus 29213 [3]; 100 μL injected at the infected site 1 h after infection, skin homogenate colony count after 24 h, P < 0.01): 10 fold | ulceration (lesion) size, length × width (S. aureus 29213 [3]; 100 μL, 1 h after infection): significantly reduced ulceration sizes | MIC L. plantarum 8014 (L. plantarum 8014): >64 µM | MIC E. coli K88 (E. coli K88): >64 µM | MIC E. coli K99 (E. coli K99): >64 µM
